Measured values published in patent US8026368B2, “Hydrazide compounds and thrombopoietin receptor activators” (Nissan Chemical Industries, Ltd., priority 2005, dated 2011).

Target: T1, human thrombopoietin receptor (c-mpl) (Homo sapiens, UniProt P40238)
T1 construct: expressed in transfected cells
T1 sequence (P40238 26-635): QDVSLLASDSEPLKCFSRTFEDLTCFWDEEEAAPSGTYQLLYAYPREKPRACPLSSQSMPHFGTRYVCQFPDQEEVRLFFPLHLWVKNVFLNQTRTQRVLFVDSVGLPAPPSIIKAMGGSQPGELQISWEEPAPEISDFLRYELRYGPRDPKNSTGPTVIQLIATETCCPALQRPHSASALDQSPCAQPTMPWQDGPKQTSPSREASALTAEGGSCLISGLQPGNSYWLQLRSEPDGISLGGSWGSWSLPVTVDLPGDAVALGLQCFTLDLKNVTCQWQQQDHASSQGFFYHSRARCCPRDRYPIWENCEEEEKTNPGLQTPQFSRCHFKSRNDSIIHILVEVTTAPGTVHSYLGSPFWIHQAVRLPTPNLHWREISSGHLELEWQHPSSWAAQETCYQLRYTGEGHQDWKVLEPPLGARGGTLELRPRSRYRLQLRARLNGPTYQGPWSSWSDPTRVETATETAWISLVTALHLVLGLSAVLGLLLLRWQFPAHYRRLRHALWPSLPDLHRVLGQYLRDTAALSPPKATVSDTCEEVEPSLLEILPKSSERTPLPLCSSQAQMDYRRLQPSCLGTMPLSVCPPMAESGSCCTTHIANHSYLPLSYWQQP
Assay: Stimulation of proliferation of thrombopoietin-dependent cell line UT7/EPO-mpl (WST-8)
Type: cell-based
Details: human leukemic cell line UT-7/EPO-mpl, 4 days incubation, WST-8, relative to 10 ng/mL TPO; read-out: EC50 (concentration that yields a growth rate corresponding to 50% of the growth observed in the presence of 10 ng/mL TPO) (converted)
Experimental: The responses of thrombopoietin receptor to the compounds of the present invention prepared in the Synthetic Examples were assayed using a human leukemic cell line, UT7/EPO-mpl.
UT7/EPO-mpl is a stable transformed cell line obtained by introducing into human leukemic cell line UT7/EPO a vector that induces expression of human thrombopoietin receptor (c-mpl) under control of cytomegalovirus immediate-early promoter by the method of Takatoku et al. (J. Biol. Chem., 272:7259-7263 (1997)). […] These two cell lines were subcultured in IMDM (GIBCO) containing 10% fetal bovine serum (Thermo Electron or BioWest) using a CO2 incubator (5% CO2, 37° C.).
The subcultured cells described above were washed twice with PBS and suspended in IMDM containing 10% fetal bovine serum at a cell density of 6×10^4 cells/ml. The cell suspension was transferred to a 96-well tissue culture plate (CORNING) in 100-μl aliquots. Then either thrombopoietin (Pepro Tech EC) or the compounds of the Synthetic Examples dissolved in dimethyl sulfoxide were diluted 83-fold with IMDM containing 10% fetal bovine serum and added to the aforementioned cell suspension in 20-μl aliquots. The cell suspension was incubated in a CO2 incubator (5% CO2, 37° C.) for 4 days. Cell proliferation was assayed using WST-8 reagent (Kishida Chemical Co., Ltd.) according to instructions by the manufacturer. A 10-μl aliquot of 5 mM WST-8 reagent solution was added to each well of the tissue culture plate, and the plate was incubated at 37° C. for 4 hours. The formazan pigment generated was detected by measuring the absorbance at 450 nm with a 96-well microplate reader (Nihon Molecular Devices, Spectramax 190).
The concentration of each compound that yields a growth rate corresponding to 50% of the growth of human leukemic cell line UT-7/EPO-mpl observed in the presence of 10 ng/mL TPO (EC50) in the test on the compounds of the Synthetic Examples in Assay Example 1 are shown in Table 16.

EC50 [nM] | Compound
0.871 | CC1=NN(c2ccc(C(F)(F)F)cc2)C(=O)/C1=C(/C)NNC(=O)c1ccc(C(=O)NC(C)C)s1 [Example 28]
0.661 | CNC(=O)c1ccc(C(=O)NN/C(C)=C2\C(=O)N(c3ccc(C(C)(C)C)cc3)N=C2C)s1 [Example 25]
5.34 | CC1=NN(c2ccc(Cl)c(Cl)c2)C(=O)/C1=C(/C)NNC(=O)c1ccc(C(=O)NCc2ccccn2)s1 [Example 42]
5.86 | CC1=NN(c2ccc(C(C)(C)C)cc2)C(=O)/C1=C(/C)NNC(=O)c1ccc(C(=O)NCCC(=O)O)s1 [Example 24]
1.59 | CC1=NN(c2ccc(C(F)(F)F)cc2)C(=O)/C1=C(/C)NNC(=O)c1ccc(C(=O)NCc2ccncc2)s1 [Example 29]
1.23 | COCCNC(=O)c1ccc(C(=O)NN/C(C)=C2\C(=O)N(c3ccc(C(C)(C)C)cc3)N=C2C)s1 [Example 26]
8.28 | CCN(CC)C(=O)c1ccc(C(=O)NN/C(C)=C2\C(=O)N(c3ccc(C(F)(F)F)cc3)N=C2C)s1 [Example 31]
5.46 | CC1=NN(c2ccc(Cl)c(Cl)c2)C(=O)/C1=C(/C)NNC(=O)c1ccc(C(=O)NC(C)C)s1 [Example 37]
4.75 | CC1=NN(c2ccc(Cl)c(Cl)c2)C(=O)/C1=C(/C)NNC(=O)c1ccc(C(=O)N2CCC(N3CCCC3)CC2)s1 [Example 41]
6.53 | CC1=NN(c2ccc(C(F)(F)F)cc2)C(=O)C1=C(C)NNC(=O)c1ccc(C(=O)N2CCCC2)s1 [Example 32]
11.3 | COC1CN(C(=O)c2ccc(C(=O)NN/C(C)=C3\C(=O)N(c4ccc(Cl)c(Cl)c4)N=C3C)s2)CC1OC (stereo not shown) [Example 44]
4.97 | CC1=NN(c2ccc(Cl)c(Cl)c2)C(=O)/C1=C(/C)NNC(=O)c1ccc(C(=O)NCc2ccncc2)s1 [Example 38]
6.93 | CC1=NN(c2ccc(C(F)(F)F)cc2)C(=O)/C1=C(/C)NNC(=O)c1ccc(C(=O)N2CCC(N(C)C)C2)s1 (stereo not shown) [Example 35]
5.65 | CC1=NN(c2ccc(Cl)c(Cl)c2)C(=O)/C1=C(/C)NNC(=O)c1ccc(C(=O)NN(C)C)s1 [Example 40]
5.02 | CC1=NN(c2ccc(C(F)(F)F)cc2)C(=O)/C1=C(/C)NNC(=O)c1ccc(C(=O)N2CC(O)C(O)C2)s1 (stereo not shown) [Example 30]
4.45 | CC1=NN(c2ccc(C(F)(F)F)cc2)C(=O)/C1=C(/C)NNC(=O)c1ccc(C(=O)NN(C)C)s1 [Example 33]
4.25 | CC1=NN(c2ccc(C(F)(F)F)cc2)C(=O)/C1=C(/C)NNC(=O)c1ccc(C(=O)N2CCC(N3CCCC3)CC2)s1 [Example 34]
3.9 | CC1=NN(c2ccc(Cl)c(Cl)c2)C(=O)/C1=C(/C)NNC(=O)c1ccc(C(=O)N2CC(O)C(O)C2)s1 (stereo not shown) [Example 39]
4.6 | CC1=NN(c2ccc(Cl)c(Cl)c2)C(=O)/C1=C(/C)NNC(=O)c1ccc(C(=O)NCc2cccnc2)s1 [Example 43]
1.6 | CCCNC(=O)c1ccc(C(=O)NN/C(C)=C2\C(=O)N(c3ccc(C(C)(C)C)cc3)N=C2C)s1 [Example 27]

Further lines, the compound ahead of its results:

Compound | EC50 [nM]
CNC(=O)c1ccc(C(=O)NN/C(C)=C2\C(=O)N(c3ccc(C)c(C)c3)N=C2C)s1 [Example 10] | 5.17
CC1=NN(c2ccc(C)c(C)c2)C(=O)/C1=C(/C)NNC(=O)c1ccc(C(=O)NCCC(=O)O)s1 [Example 9] | 8.89
CC1=NN(c2ccc(C(C)(C)C)cc2)C(=O)/C1=C(/C)NNC(=O)c1ccc(C(=O)NC(C)C)s1 [Example 11] | 1.16
CC1=NN(c2ccc(C(C)(C)C)cc2)C(=O)/C1=C(/C)NNC(=O)c1ccc(C(=O)NCc2ccccn2)s1 [Example 19] | 2.64
CC1=NN(c2ccc(C(C)(C)C)cc2)C(=O)/C1=C(/C)NNC(=O)c1ccc(C(=O)NCC(=O)O)s1 [Example 23] | 6.23
CC1=NN(c2ccc(C)c(C)c2)C(=O)/C1=C(/C)NNC(=O)c1ccc(C(=O)NCc2ccncc2)s1 [Example 2] | 1.63
CC1=NN(c2ccc(C(C)(C)C)cc2)C(=O)/C1=C(/C)NNC(=O)c1ccc(C(=O)N2CCC(N3CCCC3)CC2)s1 [Example 17] | 3.99
CC1=NN(c2ccc(C(C)(C)C)cc2)C(=O)/C1=C(/C)NNC(=O)c1ccc(C(=O)NN2CCOCC2)s1 [Example 21] | 1.2
CC1=NN(c2ccc(C)c(C)c2)C(=O)/C1=C(/C)NNC(=O)c1ccc(C(=O)NN(C)C)s1 [Example 5] | 6.16
CC1=NN(c2ccc(C)c(C)c2)C(=O)/C1=C(/C)NNC(=O)c1ccc(C(=O)N2CCCC2)s1 [Example 4] | 7.52
CC1=NN(c2ccc(C(C)(C)C)cc2)C(=O)/C1=C(/C)NNC(=O)c1ccc(C(=O)NCc2ccncc2)s1 [Example 12] | 0.528
CC1=NN(c2ccc(C)c(C)c2)C(=O)/C1=C(/C)NNC(=O)c1ccc(C(=O)NCc2ccccn2)s1 [Example 7] | 3.58
CC1=NN(c2ccc(C)c(C)c2)C(=O)/C1=C(/C)NNC(=O)c1ccc(C(=O)N2CC(O)C(O)C2)s1 (stereo not shown) [Example 3] | 5.63
CC1=NN(c2ccc(C(C)(C)C)cc2)C(=O)/C1=C(/C)NNC(=O)c1ccc(C(=O)NCc2cccnc2)s1 [Example 20] | 0.528
CC1=NN(c2ccc(C(C)(C)C)cc2)C(=O)/C1=C(/C)NNC(=O)c1ccc(C(=O)N2CCCC2)s1 [Example 15] | 5.27
CCN(CC)C(=O)c1ccc(C(=O)NN/C(C)=C2\C(=O)N(c3ccc(C(C)(C)C)cc3)N=C2C)s1 [Example 14] | 11.7
COC1CN(C(=O)c2ccc(C(=O)NN/C(C)=C3\C(=O)N(c4ccc(C(C)(C)C)cc4)N=C3C)s2)CC1OC (stereo not shown) [Example 22] | 5.78
CC1=NN(c2ccc(C(C)(C)C)cc2)C(=O)/C1=C(/C)NNC(=O)c1ccc(C(=O)NN(C)C)s1 [Example 16] | 3.94
CC1=NN(c2ccc(C(C)(C)C)cc2)C(=O)/C1=C(/C)NNC(=O)c1ccc(C(=O)N2CC(O)C(O)C2)s1 (stereo not shown) [Example 13] | 1.01
CC1=NN(c2ccc(C)c(C)c2)C(=O)/C1=C(/C)NNC(=O)c1ccc(C(=O)NCc2cccnc2)s1 [Example 8] | 0.676
CC1=NN(c2ccc(C(C)(C)C)cc2)C(=O)/C1=C(/C)NNC(=O)c1ccc(C(=O)N2CCC(N(C)C)C2)s1 (stereo not shown) [Example 18] | 5.03

Target: T1, human thrombopoietin receptor (c-mpl)
Assay: not given
Details: cell line characterisation, Takatoku et al.; cited from earlier work

Compound | Proliferation of UT7/EPO-mpl cell line in response to TPO
TPO: Thrombopoietin (Pepro Tech EC), a cytokine consisting of 332 amino acids; reference stimulus at 10 ng/mL | stimulated

Tested on: UT7/EPO
Assay: not given
Details: cell line characterisation, Takatoku et al.; cited from earlier work

Compound | Response of mother cell line UT7/EPO to TPO
TPO: Thrombopoietin (Pepro Tech EC), a cytokine consisting of 332 amino acids; reference stimulus at 10 ng/mL | no response
